According to patent US4731357A (Imperial Chemical Industries PLC, priority 1985, dated 1988):

Assays:
intact tendons = experiment: Urogastrone 100 ug/kg injected twice daily into intact tendons in unoperated rats (Example 2); type: in vivo, rat; details: highest dose (100 ug./kg. twice daily); 15 days
[1] = test system: sectioned Achilles tendon; experiment: Graded doses of urogastrone on healing of sectioned Achilles tendons in rats (Example 2, FIGS. 3 and 4); type: in vivo, rat; details: 15 days after surgery
Experimental: The graded doses were injected twice daily into the immediate vicinity of the sectioned tendon.
FIG. 4 corresponds to FIG. 3, but represents graphically the collagen content of the repair lesions at the injected zone 15 days after surgery rather than the dry weight of the scar tissue formed at the said zone 15 days after surgery.
The rats employed were male Wistar rats (240 g) and the Achilles tendons were sectioned as described in Example 1.
Graded doses of urogastrone were given twice daily by injection into the immediate vicinity of the sectioned Achilles tendon in rats. […] FIGS. 3 and 4 present the dry weights and collagen contents respectively of the injected zones 15 days after surgery.

[2] = test system: sectioned Achilles tendons; experiment: Longer term effects of urogastrone injections on healing of sectioned Achilles tendons in the rat (experiment 2, Table 2); type: in vivo; details: for Lesion DNA / Lesion dry wt / Lesion Collagen: ±SEM
Experimental: (§1) Male Wistar rats (240 g.) were subjected under general anaesthesia to partial tendonotomy of the left Achilles tendon, the small skin wound was then sutured and the animals allowed to recover. […] Normal saline was injected into a control group of operated animals (group [C]). […] After termination the scar tissue was removed from the point of insertion into the calcaneus bone to the point of merger of the tendon into the muscle mass. Weights of the scar tissue were measured after drying and defatting as described in Greenwald, S. E. and Berry, C. L. Cardiovasc. Res. 12,364-372 (1978). The collagen content was obtained from hydroxyproline measurements as described in Grant, R. A. J. Clin. Path. 17, 685-686 (1964) on the tissue after proteolytic (see Smith, R. L., Gilberson, E., Koliatsu, N., Merchant, T. and Schurman, D. J. Analyst. Biochem. 103, 191-200 (1980)) and alkaline (see Huzar, G., Maiocco, J. and Naftolin, F. Analyt. Biochem. 105 424-439 (1980)) digestion. The DNA content of the digests was determined using a sensitive fluorimetric technique (as described in Hinegardner, R. T. Analyt. Biochem. 39, 197-201). The results are ±SEM and were analyzed by Student' s t test. Figures in parentheses indicate the numbers of animals used in each group.

[3] = test system: acid secretion in the stomach; details: administered parenterally; known; cited from earlier work
[4] = test system: sectioned Achilles tendons; experiment: Healing of sectioned Achilles tendons in the rat, urogastrone injected twice daily at the tendon lesion (experiment 1, Table 1); type: in vivo
Experimental: as §1

Intact tendon = experiment: Urogastrone injected twice daily into the corresponding region of the unoperated leg (intact tendon, group B, Table 1); type: in vivo, rat; details: for Collagen / DNA / dry wt: intact tendon plus urogastrone 20 μg./kg. twice daily, ±SEM
Experimental: as §1

[5] = 30 days after surgery, urogastrone days 1-15 then 15 days without treatment, NS vs saline
[6] = 5 days after surgery, sectioned tendon, 20 μg./kg. twice daily at lesion, ±SEM, p < 0.001 vs saline
[7] = 9 days after surgery, sectioned tendon, 20 μg./kg. twice daily at lesion, ±SEM, p < 0.001 vs saline
[8] = first five days following surgery, statistically highly significant

Urogastrone
Collagen contents (intact tendons): increased | Dry weight (intact tendons): increased | Collagen contents of the repair lesions ([1]; 20 μg./kg. twice daily): not in the collagen contents | Dry weights of the repair lesions ([1]; 20 μg./kg. twice daily): statistically significant increase | Collagen contents of the repair lesions ([1]; 50 μg./kg. twice daily): significantly increased | Dry weights of the repair lesions ([1]; 50 μg./kg. twice daily): significantly increased | Collagen contents of the repair lesions ([1]; 100 μg./kg. twice daily): significantly increased | Dry weights of the repair lesions ([1]; 100 μg./kg. twice daily): significantly increased | Lesion DNA ([2]; 15 days after surgery, urogastrone days 1-15, 20 ug./kg. twice daily, NS vs saline): 668 ± 32 µg | Lesion dry wt ([2]; 15 days after surgery, urogastrone days 1-15, 20 ug./kg. twice daily, p < 0.001 vs saline): 61.8 ± 1.3 mg | Lesion Collagen ([2]; 15 days after surgery, urogastrone days 1-15, 20 ug./kg. twice daily, p < 0.01 vs saline): 28.1 ± 0.9 mg | Lesion Collagen [2, 5]: 28.7 ± 1.2 mg | Lesion dry wt [2, 5]: 50.2 ± 1.1 mg | Lesion DNA ([2]; 30 days after surgery, urogastrone days 1-15 then 15 days without treatment, p < 0.05 vs saline): 397 ± 17 µg | Lesion DNA ([2]; 30 days after surgery, urogastrone days 1-30, 20 ug./kg. twice daily, NS vs saline): 495 ± 17 µg | Lesion Collagen ([2]; 30 days after surgery, urogastrone days 1-30, 20 ug./kg. twice daily, p < 0.001 vs saline): 32.1 ± 1.3 mg | Lesion dry wt ([2]; 30 days after surgery, urogastrone days 1-30, 20 ug./kg. twice daily, p < 0.01 vs saline): 56.8 ± 2.0 mg | Dry weight and collagen content of the scars versus animals untreated throughout ([2]; dosing stopped after fifteen days, treatment free for a further fifteen days): no longer distinguishable | Collagen content of repair lesion higher than saline-treated control lesions ([2]; thirty days on urogastrone): 27% | DNA contents of urogastrone versus saline-treated lesions ([2]; thirty days on urogastrone): essentially the same | Dry weight of repair lesion higher than saline-treated control lesions ([2]; thirty days on urogastrone): 19% | Acid secretion in the stomach [3]: inhibit acid secretion in the stomach | Lesion DNA [4, 6]: 517 ± 12 µg | Lesion dry wt [4, 6]: 42.9 ± 2.0 mg | Lesion DNA [4, 7]: 653 ± 20 µg | Lesion dry wt [4, 7]: 61.1 ± 2.0 mg | Lesion Collagen ([4]; 9 days after surgery, sectioned tendon, 20 μg./kg. twice daily at lesion, ±SEM, p < 0.05 vs saline): 16.8 ± 0.9 mg | Lesion DNA ([4]; 15 days after surgery, sectioned tendon, 20 μg./kg. twice daily at lesion, ±SEM, NS vs saline): 556 ± 23 µg | Lesion dry wt ([4]; 15 days after surgery, sectioned tendon, 20 μg./kg. twice daily at lesion, ±SEM, p < 0.001 vs saline): 53.3 ± 2.8 mg | Apparent increase in DNA content of urogastrone-treated lesions ([4]; day 15, not significantly different from the control value): 8% | Increase in collagen over saline-injected controls ([4]; fifteen days after surgery): 28% | Increase in dry weight over saline-injected controls ([4]; fifteen days after surgery): 24% | Increase in collagen content of scar tissue compared with saline-injected controls [4, 8]: 61% | Increase in dry weight of scar tissue compared with saline-injected controls [4, 8]: 38% | Collagen (Intact tendon; 5 days, NS vs intact tendon): 6.1 ± 0.3 mg | DNA (Intact tendon; 5 days, NS vs intact tendon): 94.3 ± 8.5 µg | dry wt (Intact tendon; 5 days, NS vs intact tendon): 12.7 ± 1.6 mg | Collagen (Intact tendon; 9 days, NS vs intact tendon): 7.0 ± 0.5 mg | dry wt (Intact tendon; 9 days, NS vs intact tendon): 14.1 ± 1.2 mg | DNA (Intact tendon; 9 days, p < 0.05 vs intact tendon): 124 ± 10 µg | Collagen (Intact tendon; 15 days, NS vs intact tendon): 7.0 ± 0.3 mg | DNA (Intact tendon; 15 days, NS vs intact tendon): 101 ± 6 µg | Effect on unoperated tendon in the opposite leg (Intact tendon; injected twice daily, throughout the treatment period, possible exception of increased DNA content after nine days): little or no effect
